Biological target: T1, A2 Adenosine receptor (Rattus norvegicus, UniProt P30543)
T1 construct: membrane preparations derived from the rat phaeochromocytoma cell line PC 12; host or cells: PC 12 (rat phaeochromocytoma)
Assay: A2 Adenosine receptor affinity test: displacement of [3H]-NECA from PC 12 cell membranes
Format: binding
Description: (a) A2 Adenosine receptor affinity test This test involves the ability of a test adenosine antagonist to displace the known adenosine mimetic agent [^3 H]-N-ethylcarboxamidoadenosine (NECA) from binding sites on membrane preparations derived from the rat phaeochromocytoma cell line PC 12 (available from the Beatson Institute, Glasgow). […] The membrane preparation is obtained as follows: Frozen pellets of PC12 cells are washed twice with ice cold, buffered, physiological saline and the cells recovered by centrifugation (1500 G) at 3° C. The separated cells are then suspended in hypotonic solution (distilled water), allowed to stand on ice for 30 minutes and are then carefully homogenized using a standard high-speed homogeniser with periodic ice-cooling to obtain a fine suspension. […] A1280). The mixture is then incubated at 37° C. After 20 minutes, the reaction is terminated by dilution with ice-cold buffer and transfer onto ice. The material obtained containing the cell membranes is recovered by centrifugation and washed by resuspension in buffer and recentrifugation. The pellet produced is then resuspended in ice-cold buffer using a hand-driven homogenizer. The resultant membrane suspension is frozen and stored under liquid nitrogen until required. […] After incubation, the samples are rapidly filtered over glass-fibre mats and the filter mats are washed to remove non-receptor-bound radioligand. Receptor-bound radioligand entrapped on the filter mats is then determined by liquid scintillation counting. Filtration and washing are carried out using a conventional vacuum filtration cell harvester. The specific binding (defined as the difference between the total binding and the non-specific binding) in the presence of the particular test compound is determined and compared with the control value.

[1] = read-out: displacement of control binding

T1 sequence (P30543 whole entry): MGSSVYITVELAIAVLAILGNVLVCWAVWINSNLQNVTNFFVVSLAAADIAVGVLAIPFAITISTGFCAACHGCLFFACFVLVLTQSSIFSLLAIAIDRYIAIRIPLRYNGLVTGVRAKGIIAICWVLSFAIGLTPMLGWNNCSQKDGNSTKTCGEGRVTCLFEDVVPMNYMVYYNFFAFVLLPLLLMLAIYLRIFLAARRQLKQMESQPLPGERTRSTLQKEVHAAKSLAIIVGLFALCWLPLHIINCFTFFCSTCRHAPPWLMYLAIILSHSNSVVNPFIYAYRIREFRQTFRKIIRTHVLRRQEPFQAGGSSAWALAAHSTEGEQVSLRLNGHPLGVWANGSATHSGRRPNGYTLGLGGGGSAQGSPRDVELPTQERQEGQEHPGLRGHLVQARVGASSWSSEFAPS

Q: What does the source list for `CN(C)CCN(C)S(=O)(=O)c1ccc(CCNc2nc(N)n3nc(-c4ccco4)nc3n2)cc1` [Example 1, 7-Amino-2-(2-furyl)-5-[2-[(4-dimethylaminoethyl-N,methylsulphonamido)phenyl]ethyl]amino[1,2,4]-triazolo[1,5-a][1,3,5]-triazine]?
A: IC50 ([3H]-NECA displacement, PC 12 membranes, inferred from displacement at 10^-5 M and 10^-7 M, read-out: pIC50 (indicated by % displacement values) (converted)): < 100 nM; inhibition at 0.1 µM [1]: 77.7%; inhibition at 10 µM [1]: 93.7%

Source: US5380714A, “2-furyl-triazalo [1,5-a]-[1,3,5]triazines and pyrazolo [2,3-a][1,3,5]triazines” (Imperial Chemical Industries PLC, priority 1991, dated 1995)
